The subject of data set [1] is Hepatotoxicity.
Data set [2] has as its system Hepatotoxicity. The source holds these as a separate data set.
For data set [3], the system named is Hepatotoxicity. This is another data set of the same source.
Data set [4] concerns Hepatotoxicity. The source holds these as a separate data set.
Data set [5] relates to Hepatotoxicity. The source holds these as a separate data set.
For data set [6], the system named is Hepatotoxicity. This is another data set of the same source.
Data set [7] has as its system Hepatotoxicity. This is another data set of the same source.
Data set [8] concerns Hepatotoxicity. This is another data set of the same source.
Data set [9] has as its system Hepatotoxicity. This is another data set of the same source.
Data set [10] concerns Hepatotoxicity. This is another data set of the same source.
Data set [11] deals with Hepatotoxicity. This is another data set of the same source.
In data set [12] the test system is Hepatotoxicity. The source holds these as a separate data set.
Data set [13] deals with Hepatotoxicity. The source holds these as a separate data set.
The subject of data set [14] is Hepatotoxicity. The source holds these as a separate data set.
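Throughout, for HepSE Combined Scores: combined hepatic side effect score as listed in the training data of the Drug Induced Liver Injury Prediction System (DILIps).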
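Throughout, for HepSE bilirubinemia: bilirubinemia hepatic side effect score drawn from the DILIps training data, a prediction system for drug-induced liver injury; call rule not given here.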
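Throughout, for HepSE cholecystitis: Cholecystitis-related hepatic side effect score drawn from the DILIps (drug-induced liver injury prediction) training data set; call rule not given here.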
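Throughout, for HepSE cholelithiasis: hepatic side effect score for cholelithiasis, drawn from the DILIps training data for predicting drug-induced liver injury; call rule not given here.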
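Throughout, for HepSE cirrhosis: cirrhosis hepatic side effect score taken from the DILIps (drug-induced liver injury prediction) training set; call rule not given here.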
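Throughout, for HepSE elevated liver function tests: hepatic side effect score for raised liver function tests, as recorded in the DILIps training set used for predicting drug-induced liver injury.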
Throughout, for HepSE hepatic failure: call rule not given here.
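Throughout, for HepSE hepatic necrosis: score of hepatic side effects for hepatic necrosis, drawn from the training data of DILIps, a prediction system for drug-induced liver injury; call rule not given here.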
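Throughout, for HepSE hepatitis: Hepatitis-related hepatic side effect score taken from the training data of DILIps, a prediction system for drug-induced liver injury; call rule not given here.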
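Throughout, for HepSE hepatomegaly: hepatic side effect score for hepatomegaly, taken from the training set of the DILIps drug-induced liver injury prediction system; call rule not given here.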
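Throughout, for HepSE jaundice: Jaundice-related hepatic side-effect score drawn from the training data of the DILIps (drug-induced liver injury prediction system); call rule not given here.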
Throughout, for HepSE liver disease: call rule not given here.
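Throughout, for HepSE liver fatty: hepatic side effect score for fatty liver, taken from the DILIps training set for predicting drug-induced liver injury; call rule not given here.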
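Throughout, for HepSE liver function tests abnormal: hepatic side effect score taken from the DILIps (drug-induced liver injury prediction system) training data, here covering abnormal liver function test findings.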

`C[C@@H]1C[C@H]2[C@H]3[C@H]([C@@H](O)C[C@]2(C)[C@@]1(O)C(=O)CO)[C@@]1(C)C=CC(=O)C=C1C[C@H]3Cl` [ALCLOMETASONE]: in [1], the HepSE_liver fatty is reported as 0. Besides, the HepSE_liver disease in data set [2] is given as 0. The compound further registered a HepSE_cirrhosis in data set [3] of 0. The same compound gave a HepSE_bilirubinemia in [4] of 0. In data set [5], this compound displayed a HepSE_cholecystitis of 0. Moreover, in [6], the HepSE_jaundice is 0. Moreover, the “HepSE_liver function tests abnormal” value in data set [7] is given as 0. The compound also displayed a HepSE_hepatic necrosis in data set [8] of 0. For the same compound, the “HepSE_Combined Scores” value in data set [9] is 0. The same compound displayed a HepSE_hepatomegaly in data set [10] of 0. In addition, the HepSE_hepatitis in data set [11] stood at 0. Further, the “HepSE_elevated liver function tests” value in data set [12] is 0. The same compound showed a HepSE_hepatic failure in data set [13] of 0. The HepSE_cholelithiasis in data set [14] is given as 0.

In [1], `COc1cc2nc(N(C)CCCNC(=O)C3CCCO3)nc(N)c2cc1OC` (stereo not given) [ALFUZOSIN] showed a HepSE_liver fatty of 0. This compound had a HepSE_liver disease in data set [2] of 1. In data set [3], this compound gave a HepSE_cirrhosis of 0. The compound also yielded a HepSE_bilirubinemia in data set [4] of 0. The compound further yielded a HepSE_cholecystitis in data set [5] of 0. Also, the HepSE_jaundice in data set [6] was 1. The “HepSE_liver function tests abnormal” value in data set [7] came out at 0. The compound further showed a HepSE_hepatic necrosis in data set [8] of 0. In [9], the “HepSE_Combined Scores” value was 2. This compound yielded a HepSE_hepatomegaly in [10] of 0. The compound further came in with a HepSE_hepatitis in [11] of 0. Moreover, the “HepSE_elevated liver function tests” value in data set [12] was 0. Further, the HepSE_hepatic failure in [13] turned out to be 0. This compound also yielded a HepSE_cholelithiasis in data set [14] of 0.

The compound `Oc1ncnc2[nH]ncc12` [ALLOPURINOL] had a HepSE_liver fatty in data set [1] of 0. The compound further came in with a HepSE_liver disease in data set [2] of 0. This compound displayed a HepSE_cirrhosis in data set [3] of 0. The HepSE_bilirubinemia in data set [4] is 1. The HepSE_cholecystitis in data set [5] came out at 0. The same compound showed a HepSE_jaundice in [6] of 1. Also, in data set [7], the “HepSE_liver function tests abnormal” value was determined as 0. For the same compound, the HepSE_hepatic necrosis in data set [8] is listed as 1. Moreover, the “HepSE_Combined Scores” value in data set [9] stood at 5. The HepSE_hepatomegaly in data set [10] was determined as 1. Besides, the HepSE_hepatitis in [11] was determined as 1. Moreover, the “HepSE_elevated liver function tests” value in data set [12] turned out to be 0. The HepSE_hepatic failure in data set [13] was 0. Besides, the HepSE_cholelithiasis in data set [14] came to 0.

In the case of `CN(C)CCc1c[nH]c2ccc(CS(=O)(=O)N3CCCC3)cc12` [ALMOTRIPTAN], in data set [1], the HepSE_liver fatty is reported as 0. Besides, in data set [2], the HepSE_liver disease worked out at 0. Also, the HepSE_cirrhosis in [3] is recorded as 0. This compound returned a HepSE_bilirubinemia in data set [4] of 0. This compound also showed a HepSE_cholecystitis in [5] of 0. The HepSE_jaundice in data set [6] stood at 0. Besides, in data set [7], the “HepSE_liver function tests abnormal” value amounted to 0. Also, in data set [8], the HepSE_hepatic necrosis is recorded as 0. Besides, the “HepSE_Combined Scores” value in data set [9] was 0. The compound further had a HepSE_hepatomegaly in data set [10] of 0. Besides, the HepSE_hepatitis in [11] was 0. The “HepSE_elevated liver function tests” value in data set [12] is reported as 0. Further, the HepSE_hepatic failure in data set [13] is on record as 0. The compound also registered a HepSE_cholelithiasis in data set [14] of 0.

In turn, `Cc1[nH]cnc1CN1CCc2c(c3ccccc3n2C)C1=O` [ALOSETRON] registered a HepSE_liver fatty in [1] of 0. In data set [2], this compound showed a HepSE_liver disease of 0. The HepSE_cirrhosis in data set [3] amounted to 0. In data set [4], the HepSE_bilirubinemia is recorded as 0. The HepSE_cholecystitis in data set [5] came out at 1. For the same compound, the HepSE_jaundice in [6] came out at 1. The “HepSE_liver function tests abnormal” value in [7] worked out at 0. For the same compound, the HepSE_hepatic necrosis in data set [8] is listed as 0. In addition, the “HepSE_Combined Scores” value in [9] was 3. Besides, in data set [10], the HepSE_hepatomegaly is 0. This compound also yielded a HepSE_hepatitis in [11] of 1. In [12], the “HepSE_elevated liver function tests” value worked out at 0. Besides, the HepSE_hepatic failure in data set [13] was 0. This compound had a HepSE_cholelithiasis in data set [14] of 0.

Compound `Cc1nnc2n1-c1ccc(Cl)cc1C(c1ccccc1)=NC2` [ALPRAZOLAM] displayed a HepSE_liver fatty in [1] of 0. For the same compound, the HepSE_liver disease in data set [2] turned out to be 0. Besides, in data set [3], the HepSE_cirrhosis came out at 0. Besides, in data set [4], the HepSE_bilirubinemia came to 0. Further, the HepSE_cholecystitis in [5] is on record as 0. In data set [6], this compound showed a HepSE_jaundice of 1. For the same compound, the “HepSE_liver function tests abnormal” value in data set [7] is 0. For the same compound, in data set [8], the HepSE_hepatic necrosis is given as 0. In data set [9], the “HepSE_Combined Scores” value came out at 3. The same compound came in with a HepSE_hepatomegaly in [10] of 0. The compound also showed a HepSE_hepatitis in data set [11] of 1. In addition, the “HepSE_elevated liver function tests” value in data set [12] was 0. Also, in [13], the HepSE_hepatic failure amounted to 1. Besides, the HepSE_cholelithiasis in data set [14] amounted to 0.

`CCCCC[C@H](O)/C=C/[C@H]1[C@H](O)CC(=O)[C@@H]1CCCCCCC(=O)O` [ALPROSTADIL] had a HepSE_liver fatty in [1] of 0. This compound also displayed a HepSE_liver disease in [2] of 0. Also, the HepSE_cirrhosis in [3] was determined as 0. Moreover, the HepSE_bilirubinemia in data set [4] is on record as 1. This compound returned a HepSE_cholecystitis in [5] of 0. Besides, the HepSE_jaundice in [6] came out at 0. Also, in data set [7], the “HepSE_liver function tests abnormal” value worked out at 0. Besides, the HepSE_hepatic necrosis in data set [8] is 0. In addition, the “HepSE_Combined Scores” value in data set [9] is recorded as 1. The compound also yielded a HepSE_hepatomegaly in data set [10] of 0. In data set [11], this compound returned a HepSE_hepatitis of 0. In addition, the “HepSE_elevated liver function tests” value in [12] is 0. The compound also had a HepSE_hepatic failure in data set [13] of 0. The compound also yielded a HepSE_cholelithiasis in data set [14] of 0.

In turn, `NC12CC3CC(CC(C3)C1)C2` [AMANTADINE] gave a HepSE_liver fatty in [1] of 0. For the same compound, in data set [2], the HepSE_liver disease is reported as 0. Also, in data set [3], the HepSE_cirrhosis was found to be 0. Moreover, the HepSE_bilirubinemia in [4] is 0. The HepSE_cholecystitis in [5] amounted to 0. The HepSE_jaundice in data set [6] is on record as 0. In addition, the “HepSE_liver function tests abnormal” value in [7] is on record as 0. This compound also gave a HepSE_hepatic necrosis in data set [8] of 0. For the same compound, the “HepSE_Combined Scores” value in [9] was 0. In addition, the HepSE_hepatomegaly in [10] amounted to 0. Moreover, in [11], the HepSE_hepatitis came to 0. Moreover, the “HepSE_elevated liver function tests” value in [12] is 0. Also, the HepSE_hepatic failure in data set [13] was found to be 0. In data set [14], this compound displayed a HepSE_cholelithiasis of 0.

In data set [1], `CC[N+](CC)(CCNC(=O)C(=O)NCC[N+](CC)(CC)Cc1ccccc1Cl)Cc1ccccc1Cl` [AMBENONIUM] showed a HepSE_liver fatty of 0. In data set [2], this compound registered a HepSE_liver disease of 0. Besides, in data set [3], the HepSE_cirrhosis is listed as 0. The same compound came in with a HepSE_bilirubinemia in [4] of 0. Also, the HepSE_cholecystitis in data set [5] worked out at 0. The compound also displayed a HepSE_jaundice in [6] of 0. Besides, the “HepSE_liver function tests abnormal” value in data set [7] is 0. The compound further registered a HepSE_hepatic necrosis in data set [8] of 0. In addition, the “HepSE_Combined Scores” value in [9] was found to be 0. The compound further gave a HepSE_hepatomegaly in data set [10] of 0. The compound further yielded a HepSE_hepatitis in data set [11] of 0. Also, the “HepSE_elevated liver function tests” value in [12] is 0. Also, the HepSE_hepatic failure in data set [13] was 0. In addition, the HepSE_cholelithiasis in data set [14] turned out to be 0.

`COC(c1ccccc1)(c1ccccc1)[C@H](Oc1nc(C)cc(C)n1)C(=O)O` [AMBRISENTAN]: the HepSE_liver fatty in [1] was 0. Besides, in [2], the HepSE_liver disease is 0. Also, the HepSE_cirrhosis in data set [3] worked out at 0. In data set [4], this compound showed a HepSE_bilirubinemia of 0. This compound also showed a HepSE_cholecystitis in [5] of 0. The HepSE_jaundice in data set [6] stood at 0. In addition, the “HepSE_liver function tests abnormal” value in [7] was found to be 0. In addition, in [8], the HepSE_hepatic necrosis is on record as 0. For the same compound, in data set [9], the “HepSE_Combined Scores” value was 0. Further, the HepSE_hepatomegaly in data set [10] amounted to 0. Besides, in [11], the HepSE_hepatitis is listed as 0. For the same compound, in data set [12], the “HepSE_elevated liver function tests” value is 0. Besides, the HepSE_hepatic failure in [13] worked out at 0. The HepSE_cholelithiasis in data set [14] worked out at 0.

For the origin of these results see ChEMBL document CHEMBL1909294, “Translating clinical findings into knowledge in drug safety evaluation--drug induced liver injury prediction system (DILIps)” (PLoS Comput Biol, 2011).
